Legend:
[1] = parameters: species or system Male Sprague-Dawley rats; details: rat, in vivo, po, 150 mg/kg
Description: Oral dosing (PO) compositions of delivery agent compound and salmon calcitonin (sCT) in water were prepared. Typically, 450 mg of compound was added to 2.0 ml of water. Either the sodium salt of the compound was used or the free acid was converted to the sodium salt by stirring the resultant solution and adding one equivalent of sodium hydroxide (1.0 N) and diluting with water. The solution was vortexed, then heated (about 37°C) and sonicated. The pH was adjusted to about 7 (6.5 to 8.5) with sodium hydroxide or hydrochloric acid. 90 µg sCT from a stock solution was added to the solution. Water was then added to bring the total volume to about 3.0 ml (varies depending on solubility of the delivery agent compound) and vortexed. The final delivery agent compound dose, sCT dose and volume dose amounts are listed below in Table 1.
The typical dosing and sampling protocols were as follows. Male Sprague-Dawley rats weighing between 200-250g were fasted for 24 hours and administered ketamine (44 mg/kg) and chlorpromazine (1.5 mg/kg) 15 minutes prior to dosing. A dosing group of five rats was administered one of the dosing solutions. For oral dosing, an 11 cm Rusch 8 French catheter was adapted to a 1 ml syringe with a pipette tip. The syringe was filled with dosing solution by drawing the solution through the catheter, which was then wiped dry. The catheter was placed down the esophagus leaving 1 cm of tubing past the incisors. Solution was administered by pressing the syringe plunger.
Blood samples were collected serially from the tail artery, typically at 0, 10, 20, 30, 60 and 90 minutes after administration. Serum sCT was determined by testing with an EIA kit (Kit # EIAS-6003 from Peninsula Laboratories, Inc., San Carlos, CA). Numbers were adjusted according to baseline values obtained at 0 minutes. The limit of the assay is 80 pg/ml. The results from the five rats in each dosing group were averaged for each time point. The maximum is reported below in Table 1.

[2] = parameters: species or system Male Sprague-Dawley rats; details: rat, in vivo, po, 100 mg/kg
Description: Oral gavage (PO) and/or intracolonic (IC) dosing solutions of delivery agent compound and human parathyroid hormone residues 1-34 (PTH) in water were prepared. A solution of the compound was made either with the sodium salt of the compound or by converting the free acid to its sodium salt. Typically, a solution of the compound was prepared in water and stirred, adding one equivalent of sodium hydroxide (1.0 N) when making the sodium salt. The final dosing solutions were prepared by mixing the compound solution with a PTH stock solution (typically having a concentration of 5 mg PTH/ml) and diluting to the desired volume (usually 3.0 ml). The final compound, PTH and volume dose amounts are listed below in Table 4.
The typical dosing and sampling protocols were as follows. Male Sprague-Dawley rats weighing between 200-250g were fasted for 24 hours and administered ketamine (44 mg/kg) and chlorpromazine (1.5 mg/kg) 15 minutes prior to dosing. A dosing group of five rats was administered one of the dosing solutions. For oral gavage (PO), an 11cm Rusch 8 French catheter was adapted to a 1 ml syringe with a pipette tip. The syringe was filled with dosing solution by drawing the solution through the catheter, which was then wiped dry. The catheter was placed down the esophagus leaving 1 cm of tubing past the rat's incisors. Solution was administered by pressing the syringe plunger. For intracolonic (IC) dosing, a 7.5 cm Rusch catheter tube (French 8 or 6) was adapted to a syringe with an Eppendorf pipette tip. The syringe was filled with the dosing solution by drawing the solution through the catheter tube. The catheter tube was wiped dry. K-Y jelly was applied to the tip, avoiding contact with the eye of the tube, and the tube was inserted into the colon through the anus until the tube was no longer visible. The solution was injected by pressing the syringe plunger, and the tube was removed.
Blood samples were collected serially from the tail artery, typically 0, 15, 30, 45, 60 and 90 minutes after oral administration and 0, 10, 20, 30, 60 and 90 minutes after IC administration. Serum PTH concentrations were quantified by a PTH radioimmunoassay kit (Kit # RIK 6101 from Peninsula Laboratories, Inc., San Carlos, CA). Previous studies indicated baseline values of about zero. Results from the five rats in each group were averaged for each time point. The maximum is reported below in Table 4.

[3] = Intracolonic delivery of heparin with delivery agent compound; heparin activity by activated partial thromboplastin time (APTT); type: in vivo, Male Sprague-Dawley rats; details: rats, intracolonic (IC); compound 50 mg/kg, heparin 25 mg/kg, volume 1 ml/kg; maximum of time-point means of five rats; baseline about 20 sec
Description: Oral gavage (PO) and/or intracolonic (IC) dosing solutions containing a delivery agent compound and heparin sodium USP in 25% aqueous propylene glycol were prepared. Either the sodium salt of the compound was used or the free acid was converted to the sodium salt with one equivalent of sodium hydroxide. Typically, delivery agent compound and heparin (about 166-182 IU/mg) were mixed by vortex as dry powders. This dry mixture was dissolved in 25% v/v aqueous propylene glycol, vortexed and placed in a sonicator (about 37 °C). The pH was adjusted to about 7 (6.5 to 8.5) with aqueous sodium hydroxide (2N). The dosing solution was sonicated to produce a clear solution. The final volume was adjusted to about 3.0 ml. The final delivery agent compound dose, heparin dose and volume dose amounts are listed below in Table 2.
The typical dosing and sampling protocols were as follows. […]
Citrated blood samples were collected by cardiac puncture following the administration of ketamine (88 mg/kg), typically at 0.25, 0.5, 1.0 and 1.5 hours after administration. Heparin activity was determined by utilizing the activated partial thromboplastin time (APTT) according to the method of Henry, J.B., Clinical Diagnosis and Management by Laboratory Methods, Philadelphia, PA, W.B. Saunders (1979). […]

Compound | Mean Peak Serum Set (pg/ml ± SD)(SE) [1] | AUC [2] | Mean Peak Serum [PTH] (pg/ml) ± SD [2] [pg/mL] | Mean Peak APTT (sec) ± SD [3] [s]
O=C(O)CCCCCCc1nnc(-c2cc(Cl)ccc2O)o1 [Compound 5] | 393 ± 431 (193) pg/ml | 509.20 | 22.91 | –
O=C(O)CCCCCCCc1nnc(-c2ccccc2O)o1 [Compound 4] | – | 6852.12 | 330.74 ± 410.57 | –
O=C(O)CCCCCCc1nnc(-c2ccccc2)o1 [Compound 10] | 37 ± 55 pg/mL | – | – | –
Cc1ccc(-c2nnc(CCCCCCC(=O)O)o2)c(O)c1 [Compound 7] | – | 4790.10 | 138.9 ± 118.46 | –

Second part, led by results:

Mean Peak Serum Set (pg/ml ± SD)(SE) [1] | AUC [2] | Mean Peak Serum [PTH] (pg/ml) ± SD [2] [pg/mL] | Compound | Mean Peak APTT (sec) ± SD [3] [s]
306 ± 339 (152) pg/ml | 716.96 | 14.44 | O=C(O)CCCCCCc1nnc(-c2cc(Cl)cc(Cl)c2O)o1 [Compound 6] | –
– | 2717.51 | 57.88 | O=C(O)CCCCc1nnc(-c2ccccc2O)o1 [Compound 3] | –
– | – | 498.55 ± 237.83 | O=C(O)CCCCCCc1nnc(-c2ccccc2O)o1 [Compound 2] | 52.8 ± 31.9
